Common to all, as to type: functional
In test [1] the test system is Staphylococcus aureus. As to the kind of experiment: Anti-bacterial activity against Staphylococcus aureus ATCC 1708 assessed as inhibition of bacterial growth.
Another test deals with Acinetobacter baumannii. As to the kind of experiment: Anti-bacterial activity against Acinetobacter baumannii R674 assessed as inhibition of bacterial growth.
In test [2] the test system is Staphylococcus aureus. The experiment in a line: Anti-bacterial activity against methicillin-resistant Staphylococcus aureus ATCC 43300 assessed as inhibition of bacterial growth.
The subject of test [3] is Escherichia coli. As to the kind of experiment: Anti-bacterial activity against Escherichia coli ATCC 25922 assessed as inhibition of bacterial growth.
Test [4] has as its system Staphylococcus aureus. As to the kind of experiment: Anti-bacterial activity against Staphylococcus aureus ATCC 25923 assessed as inhibition of bacterial growth.
The test system of test [5] is Staphylococcus aureus. The experiment in a line: Anti-bacterial activity against methicillin-resistant Staphylococcus aureus N315 assessed as inhibition of bacterial growth.
Test [6] deals with Staphylococcus aureus. The experiment in a line: Anti-bacterial activity against Staphylococcus aureus ATCC 6538 assessed as inhibition of bacterial growth.
The next test relates to Klebsiella pneumoniae. As to the kind of experiment: Anti-bacterial activity against Klebsiella pneumoniae KPN325 assessed as inhibition of bacterial growth.
The test system of test [7] is Pseudomonas aeruginosa. As to the kind of experiment: Anti-bacterial activity against Pseudomonas aeruginosa ATCC 27853 assessed as inhibition of bacterial growth.
The test system of test [8] is Pseudomonas aeruginosa. As to the kind of experiment: Anti-bacterial activity against Pseudomonas aeruginosa ATCC 15442 assessed as inhibition of bacterial growth.
Test [9] concerns Escherichia coli. As to the kind of experiment: Anti-bacterial activity against Escherichia coli JM109 assessed as inhibition of bacterial growth.
Test [10] relates to Candida albicans. The experiment in a line: Anti-fungal activity against Candida albicans 90023 assessed as inhibition of fungal growth.
The test system of test [11] is Pseudomonas aeruginosa. As to the kind of experiment: Anti-bacterial activity against Pseudomonas aeruginosa CMCC (B) 10104 assessed as inhibition of bacterial growth.
The subject of test [12] is Staphylococcus aureus. As to the kind of experiment: Anti-bacterial activity against Staphylococcus aureus ATCC 12600 assessed as inhibition of bacterial growth.
In another test the test system is Candida tropicalis. The experiment in a line: Anti-fungal activity against Candida tropicalis assessed as inhibition of fungal growth.
In the next test the test system is Candida parapsilosis. As to the kind of experiment: Anti-fungal activity against Candida parapsilosis assessed as inhibition of fungal growth.
In test [13] the test system is Pseudomonas aeruginosa. As to the kind of experiment: Anti-bacterial activity against Pseudomonas aeruginosa ST235 assessed as inhibition of bacterial growth.
For test [14], the system named is Candida albicans. The experiment in a line: Anti-fungal activity against Candida albicans assessed as inhibition of fungal growth.
The test system of test [15] is Staphylococcus aureus. As to the kind of experiment: Anti-bacterial activity against Staphylococcus aureus ATCC 29213 assessed as inhibition of bacterial growth.
The test system of test [16] is Pseudomonas aeruginosa. The experiment in a line: Anti-bacterial activity against Pseudomonas aeruginosa ATCC 9027 assessed as inhibition of bacterial growth.
The test system of test [17] is Staphylococcus aureus. As to the kind of experiment: Anti-bacterial activity against Staphylococcus aureus CMCC (B) 26001 assessed as inhibition of bacterial growth.
Test [18] concerns Staphylococcus aureus. As to the kind of experiment: Anti-bacterial activity against Staphylococcus aureus CMCC (B) 26003 assessed as inhibition of bacterial growth.
The next test concerns Enterococcus faecalis. As to the kind of experiment: Anti-bacterial activity against Enterococcus faecalis V583 assessed as inhibition of bacterial growth.
[19] abbreviates: Staphylococcus aureus, ATCC 1708, read-out: MIC.
Where [20] appears, read: Staphylococcus aureus, ATCC 43300, read-out: MIC.
Setting [21] is: Staphylococcus aureus, ATCC 25923, read-out: MIC.
Setting [22] is: Staphylococcus aureus, N315, read-out: MIC.
Setting [23] is: Klebsiella pneumoniae, KPN325, read-out: MIC.
The mark [24] stands for this setting: Pseudomonas aeruginosa, ATCC 27853, read-out: MIC.
Setting [25] is: Pseudomonas aeruginosa, ATCC 15442, read-out: MIC.
Where [26] appears, read: Pseudomonas aeruginosa, CMCC (B) 10104, read-out: MIC.
The mark [27] stands for this setting: Staphylococcus aureus, ATCC 12600, read-out: MIC.
The mark [28] stands for this setting: Candida tropicalis, read-out: MIC.
Setting [29] is: Lodderomyces parapsilosis, read-out: MIC.
Setting [30] is: Pseudomonas aeruginosa, ST235, read-out: MIC.
[31] abbreviates: Candida albicans, read-out: MIC.
Where [32] appears, read: Staphylococcus aureus, ATCC 29213, read-out: MIC.

Drawing on ChEMBL document CHEMBL5505979, “Novel aminothiazoximone-corbelled ethoxycarbonylpyrimidones with antibiofilm activity to conquer Gram-negative bacteria through potential multitargeting effects” (Eur J Med Chem, 2024), this text covers MIC for five compounds.

Converted amounts (≈) assume the structure as drawn. “And” between values parts separate entries of the source, which are not always exact repeats. Equal entries are not always repeated.

One may read the MIC as the lowest concentration found to suppress growth.

Regarding `CCOC(=O)C1=C(CN2CCN(C(=O)/C(=N/OC)c3csc(N)n3)CC2)NC(=O)NC1c1ccc(OC)c(OC)c1OC` (centres undefined), the MIC in the test on Staphylococcus aureus [1] (setting [19]) was 208 µM (≈ 128 µg/mL); with Acinetobacter baumannii, 104 µM (≈ 64.2 µg/mL); in the test with Staphylococcus aureus [2] (setting [20]), 208 µM (≈ 128 µg/mL); with Escherichia coli [3], 52 µM (≈ 32.1 µg/mL); with Staphylococcus aureus [4] (setting [21]), 208 µM (≈ 128 µg/mL); in the test with Staphylococcus aureus [5] (setting [22]) it was 415 µM (≈ 256 µg/mL). Further, the MIC in the test with Staphylococcus aureus [6] was found to be 104 µM (≈ 64.2 µg/mL); with Klebsiella pneumoniae (setting [23]) it was 26 µM (≈ 16.1 µg/mL); in the test on Pseudomonas aeruginosa [7] (setting [24]) it was 52 µM (≈ 32.1 µg/mL); in the test with Pseudomonas aeruginosa [8] (setting [25]), 104 µM (≈ 64.2 µg/mL); in the test with Escherichia coli [9], 104 µM (≈ 64.2 µg/mL); in the test on Candida albicans [10], 398 µM (≈ 246 µg/mL). Further, the MIC in the test with Pseudomonas aeruginosa [11] (setting [26]) was determined as 104 µM (≈ 64.2 µg/mL); in the test with Staphylococcus aureus [12] (setting [27]), 415 µM (≈ 256 µg/mL); in the test on Candida tropicalis (setting [28]), 398 µM (≈ 246 µg/mL); in the test on Candida parapsilosis (setting [29]), 398 µM (≈ 246 µg/mL); with Pseudomonas aeruginosa [13] (setting [30]), 52 µM (≈ 32.1 µg/mL); with Candida albicans [14] (setting [31]), 398 µM (≈ 246 µg/mL). The minimal inhibitory concentration (MIC) in the test with Staphylococcus aureus [15] (setting [32]) is 208 µM (≈ 128 µg/mL); with Pseudomonas aeruginosa [16] it was 104 µM (≈ 64.2 µg/mL); in the test on Staphylococcus aureus [17], 415 µM (≈ 256 µg/mL); in the test with Staphylococcus aureus [18], 208 µM (≈ 128 µg/mL); in the test on Enterococcus faecalis, 208 µM (≈ 128 µg/mL).
For the compound `CCOC(=O)C1=C(CN2CCN(C(=O)/C(=N/OC)c3csc(N)n3)CC2)NC(=O)NC1c1ccc(C(F)(F)F)cc1` (centres undefined), the MIC is 27 µM (≈ 16.1 µg/mL) in the test on Staphylococcus aureus [1] (setting [19]); 27 µM (≈ 16.1 µg/mL) in the test on Acinetobacter baumannii; 27 µM (≈ 16.1 µg/mL) with Staphylococcus aureus [2] (setting [20]); 27 µM (≈ 16.1 µg/mL) in the test with Escherichia coli [3]; 27 µM (≈ 16.1 µg/mL) in the test with Staphylococcus aureus [4] (setting [21]); 108 µM (≈ 64.3 µg/mL) in the test with Staphylococcus aureus [5] (setting [22]). The MIC is 54 µM (≈ 32.2 µg/mL) in the test with Staphylococcus aureus [6]; 108 µM (≈ 64.3 µg/mL) in the test with Klebsiella pneumoniae (setting [23]); 54 µM (≈ 32.2 µg/mL) in the test on Pseudomonas aeruginosa [7] (setting [24]); 54 µM (≈ 32.2 µg/mL) in the test on Pseudomonas aeruginosa [8] (setting [25]); 27 µM (≈ 16.1 µg/mL) in the test on Escherichia coli [9]; 7 µM (≈ 4.17 µg/mL) in the test on Candida albicans [10]. In addition, the minimal inhibitory concentration (MIC) was found to be 27 µM (≈ 16.1 µg/mL) with Pseudomonas aeruginosa [11] (setting [26]); 27 µM (≈ 16.1 µg/mL) in the test with Staphylococcus aureus [12] (setting [27]); 430 µM (≈ 256 µg/mL) in the test on Candida tropicalis (setting [28]); 430 µM (≈ 256 µg/mL) in the test on Candida parapsilosis (setting [29]); 54 µM (≈ 32.2 µg/mL) in the test on Pseudomonas aeruginosa [13] (setting [30]); 430 µM (≈ 256 µg/mL) with Candida albicans [14] (setting [31]). Besides, the MIC is 27 µM (≈ 16.1 µg/mL) in the test with Staphylococcus aureus [15] (setting [32]); 54 µM (≈ 32.2 µg/mL) with Pseudomonas aeruginosa [16]; 54 µM (≈ 32.2 µg/mL) with Staphylococcus aureus [17]; 108 µM (≈ 64.3 µg/mL) in the test on Staphylococcus aureus [18]; 27 µM (≈ 16.1 µg/mL) in the test on Enterococcus faecalis.
`CCOC(=O)C1=C(CN2CCN(C(=O)/C(=N/OC)c3csc(N)n3)CC2)NC(=O)NC1c1ccc(C#N)cc1` (centres undefined): the minimum inhibitory concentration (MIC) was found to be 58 µM (≈ 32.1 µg/mL) in the test on Staphylococcus aureus [1] (setting [19]); 29 µM (≈ 16 µg/mL) in the test on Acinetobacter baumannii; 29 µM (≈ 16 µg/mL) in the test with Escherichia coli [3]; 58 µM (≈ 32.1 µg/mL) in the test on Staphylococcus aureus [4] (setting [21]); 58 µM (≈ 32.1 µg/mL) with Staphylococcus aureus [6]; 116 µM (≈ 64.1 µg/mL) in the test on Klebsiella pneumoniae (setting [23]). In addition, the MIC in the test on Pseudomonas aeruginosa [7] (setting [24]) stood at 58 µM (≈ 32.1 µg/mL); with Pseudomonas aeruginosa [8] (setting [25]) it was 58 µM (≈ 32.1 µg/mL); with Escherichia coli [9], 29 µM (≈ 16 µg/mL); in the test with Candida albicans [10], 115 µM (≈ 63.6 µg/mL); in the test on Pseudomonas aeruginosa [11] (setting [26]), 58 µM (≈ 32.1 µg/mL); with Staphylococcus aureus [12] (setting [27]), 58 µM (≈ 32.1 µg/mL). In addition, the minimal inhibitory concentration (MIC) in the test with Candida tropicalis (setting [28]) was 460 µM (≈ 254 µg/mL); in the test with Candida parapsilosis (setting [29]), 460 µM (≈ 254 µg/mL); in the test with Pseudomonas aeruginosa [13] (setting [30]) it was 58 µM (≈ 32.1 µg/mL); in the test on Candida albicans [14] (setting [31]), 460 µM (≈ 254 µg/mL); in the test on Staphylococcus aureus [15] (setting [32]), 58 µM (≈ 32.1 µg/mL); with Pseudomonas aeruginosa [16] it was 58 µM (≈ 32.1 µg/mL). Also, the MIC in the test on Staphylococcus aureus [17] turned out to be 232 µM (≈ 128 µg/mL); in the test on Enterococcus faecalis it was 29 µM (≈ 16 µg/mL).
`CCCCc1nc(Cl)c(C2NC(=O)NC(CN3CCN(CC(O)c4nccs4)CC3)=C2C(=O)OCC)[nH]1` (centres undefined): the minimum inhibitory concentration (MIC) was 99 µM and 233 µM with Staphylococcus aureus [1]; 50 µM and 116 µM in the test on Staphylococcus aureus [2]; 58 µM (≈ 32 µg/mL) with Staphylococcus aureus [4]; 50 µM (≈ 27.6 µg/mL) in the test on Staphylococcus aureus [4] (setting [21]); 199 µM and 466 µM in the test on Staphylococcus aureus [5]; 99 µM (≈ 54.7 µg/mL) in the test with Staphylococcus aureus [6]. Moreover, the minimum inhibitory concentration (MIC) with Klebsiella pneumoniae was 233 µM (≈ 129 µg/mL); with Klebsiella pneumoniae (setting [23]), 199 µM (≈ 110 µg/mL); with Pseudomonas aeruginosa [7], 50 µM and 116 µM; with Pseudomonas aeruginosa [8], 50 µM and 116 µM; in the test with Pseudomonas aeruginosa [11] it was 116 µM (≈ 64 µg/mL); in the test on Pseudomonas aeruginosa [11] (setting [26]) it was 199 µM (≈ 110 µg/mL). The MIC in the test with Staphylococcus aureus [12] is 58 µM (≈ 32 µg/mL); in the test with Staphylococcus aureus [12] (setting [27]), 50 µM (≈ 27.6 µg/mL); in the test with Candida tropicalis it was 227 µM and 466 µM; with Candida parapsilosis, 466 µM (≈ 257 µg/mL); in the test with Candida parapsilosis (setting [29]), 455 µM (≈ 251 µg/mL); with Pseudomonas aeruginosa [13] it was 116 µM (≈ 64 µg/mL). For the same compound, the MIC with Pseudomonas aeruginosa [13] (setting [30]) amounted to 199 µM (≈ 110 µg/mL); in the test on Candida albicans [14], 466 µM (≈ 257 µg/mL); in the test with Candida albicans [14] (setting [31]), 455 µM (≈ 251 µg/mL); in the test on Staphylococcus aureus [15], 58 µM (≈ 32 µg/mL); in the test with Staphylococcus aureus [15] (setting [32]) it was 50 µM (≈ 27.6 µg/mL); with Staphylococcus aureus [18], 199 µM (≈ 110 µg/mL).
As to `OC(Cn1cncn1)(Cn1cncn1)c1ccc(F)cc1F` [FLUCONAZOLE], the MIC with Candida albicans [10] is 7 µM (≈ 2.14 µg/mL); in the test on Candida tropicalis (setting [28]) it was 26 µM (≈ 7.96 µg/mL); in the test on Candida parapsilosis (setting [29]), 13 µM (≈ 3.98 µg/mL); in the test on Candida albicans [14] (setting [31]) it was 13 µM (≈ 3.98 µg/mL).
